Patent publication US9714247B2, “Multiple kinase pathway inhibitors” (Mannkind Corporation, priority 2012, dated 2017)
pIC50: −log10 of the molar value.

How the values were obtained:
[1] = system: PLC-γ2 phosphorylation in DoHH-2; assay: PLCγ2 phosphorylation by flow cytometry; assay type: cell-based, human; conditions: DoHH-2, increasing concentrations (data not shown)
Experimental: PLCγ2 phosphorylation was also assessed by flow cytometry. Cells were similarly stimulated and following stimulation, Cytofix buffer (Becton Dickinson) was added, cells were centrifuged and the cell pellets incubated on ice with Phosflow perm buffer III (Becton Dickinson). These cell pellets were washed with Perm/Wash buffer (Becton Dickinson); resuspended and labeled for flow cytometry analysis in a staining mixture containing Perm/Wash buffer and PE-labeled anti-phosphoPCLγa2 (Tyr1217) antibody (Becton Dickinson). The samples were washed with Perm/Wash buffer and analyzed on a FACS Calibur flow cytometer using CellQuest Pro software. As mentioned for the Western blot experiments, phosphorylation of PLCγ2 at Tyr1217 along with Tyr753, Tyr759 and Tyr1197 is correlated with increased PLCγ2 activity. The readout for BTK network signaling was inhibition of phosphorylation of PLCγ2. Cells were gated to exclude dead or dying cells. Fluorescence signals from the antibody staining were plotted in logarithmic units and data was analyzed using Cellquest Pro software. […] An ED50 was calculated based on the geometric mean of fluorescence intensity observed for treatment for four different concentrations of the inhibitors (see Table 7 and FIG. 6). […] Thus treatment with amino naphthyridinones inhibits PLCγ2 phosphorylation consistent with inhibition of BTK and/or LYN activity.

[2] = system: phosphorylation of SFKs in Ramos cells; assay: SFK phosphorylation (Tyr 416) by flow cytometry; assay type: cell-based, human
Method in brief: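 Ramos cells pretreated with compound 2 hrs in RPMI with 5% FBS, then stimulated 10 minutes with H2O2/anti-IgM. Phospho-Tyr 416 SFK detected by flow cytometry with an antibody that may cross-react across Src family members, plus fluorescent secondary antibody.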

DoHH2 cells = conditions: treated 24 hours
Src = Src (Homo sapiens (Human), UniProt P12931); assay: biochemical
Src, sequence (P12931 whole entry, looked up): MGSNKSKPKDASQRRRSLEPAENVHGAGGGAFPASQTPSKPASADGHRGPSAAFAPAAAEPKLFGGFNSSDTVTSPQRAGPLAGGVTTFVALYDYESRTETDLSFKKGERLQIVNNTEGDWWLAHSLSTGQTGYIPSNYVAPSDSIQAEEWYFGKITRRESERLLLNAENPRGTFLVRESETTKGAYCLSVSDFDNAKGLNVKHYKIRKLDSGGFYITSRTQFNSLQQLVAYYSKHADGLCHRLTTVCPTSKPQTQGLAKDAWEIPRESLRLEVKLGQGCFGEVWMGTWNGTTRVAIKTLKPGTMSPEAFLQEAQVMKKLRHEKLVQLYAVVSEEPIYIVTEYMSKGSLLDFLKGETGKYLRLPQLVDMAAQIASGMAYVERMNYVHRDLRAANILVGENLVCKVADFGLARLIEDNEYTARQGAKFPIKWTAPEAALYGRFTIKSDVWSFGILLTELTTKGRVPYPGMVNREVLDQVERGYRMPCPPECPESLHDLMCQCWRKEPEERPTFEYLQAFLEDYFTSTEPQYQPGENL

`CCN(CC)CCOc1ccc(Nc2cc3c(cn2)cc(-c2ccccc2)c(=O)n3CC)nc1` [Compound 1, 7-[5-(2-Diethylamino-ethoxy)-pyridin-2-ylamino]-1-ethyl-3-phenyl-1H-[1, 6]naphthyridin-2-one] was tested, and the “Inhibition of PLC-γ2 phosphorylation (flow cytometry)” value [1] was “dose dependent decrease in PLC-γ2 phosphorylation”, the inhibition at 0.3 µM ([2]; Homo sapiens, 0.3 uM, flow cytometry, SFK phosphorylated at Tyr 416, read-out: pSRC % inhibition) was 31% and the “Inhibition of SFK phosphorylation (flow cytometry)” value ([2]; incubated 2 hrs) was “dose-dependent inhibition of SFK phosphorylation”. For the same compound, the “Effect on Cell Cycle” value (DoHH2 cells) was “G1 Arrest” and the pIC50 (Src) was 6.00 to 7.00.
